Reference: patent publication US8822541B2, “Use of targeted nitroxide agents in mitigating or treating radiation injury” (University of Pittsburgh—Of the Commonwealth System of …, priority 2008, dated 2014)

How the values were obtained:
32D cl 3 cells [1] = test: Clonogenic radiation survival curves of 32D cl 3 cells (PLDR study); assay type: cell-based, mouse; parameters: key to D0: D0 in Gy, from single-hit multitarget model
Procedure: (§1) 32D cl 3 cells were resuspended at 1×10^5 cells/mL in 10×100-mm tubes and divided into three groups: radiation only, post-irradiation treatment with 10 μM JP4-039, and post-irradiation treatment with 10 μM TEMPO. Cells were irradiated to doses ranging from 0 to 8 Gy and were plated immediately after irradiation.
as §1, with “5×10^5” for “1×10^5”, “then incubated in exponentially growing colonies (flasks) for 24, 48 and 72 h in a high-humidity incubator at 37° C. with 95% air/5% CO2.” for “plated immediately after irradiation.”
32D cl 3 cells were resuspended at 5×10^5 cells/mL in 10×100-mm tubes. Cells were irradiated to doses ranging from 0 to 8 Gy and were then centrifuged at 1500 RPM for 10 minutes and incubated in vertical tubes held tight in pellets with a total of 5×10^5 cells/pellet for 24, 48 and 72 h in a high-humidity incubator at 37° C. with 95% air/5% CO2.
Cells incubated under either logarithmic or PLDR conditions were resuspended at 24, 48 and 72 h after irradiation, and cell viability was assessed using an automated cell viability counter (Beckman Coulter, Fullerton, Calif.). Subsequently, at 24, 48, 72 h, cells in pellets and flasks were resuspended and treated with 10 μM JP4-039, 10 μM TEMPO, or no treatment and were plated in triplicate in semisolid methylcellulose-containing medium at viable cell concentrations ranging from 500-40,000 cells/mL. Cells were incubated in a high-humidity incubator at 37° C. with 95% air/5% CO2 for 7 d and colonies of greater than 50 cells were scored according to published methods (Epperly M W, Gretton J E, Sikora C A, Jefferson M, Bernarding M, Nie S, et al.: Mitochondrial localization of superoxide, dismutase is required for decreasing radiation-induced cellular damage. Radiat Res. 160: 568-578, 2003).
Data from radiation survival curves were analyzed using the linear-quadratic and single-hit, multitarget models (Epperly M, et al., Prevention of late effects of irradiation lung damage by manganese superoxide dismutase gene therapy. Gene Ther. 5: 196-208, 1998). Results are presented as the mean±standard error of the mean from at least three measurements. Student's t test and two-way ANOVA were used to compare means of different groups where appropriate.

Ercc1−/Δ mice = conditions: parental compound, comparison statement; cited from earlier work
32D cl 3 cells [2] = test: EPR-based analysis of nitroxide distribution and partitioning in subcellular fractions; assay type: cell-based, mouse; conditions: flask or pelleted, 10 μM, 1 h
Procedure: To determine nitroxide partitioning and distribution in subcellular compartments, electron paramagnetic resonance (EPR) was utilized. 32D cl 3 cells were incubated for 24 h under pelleted or flask growth conditions. After incubation, 150×10^6 cells were resuspended at a concentration of 10×10^6 cells/mL and were treated with 10 μM JP4-039 or 10 μM TEMPO for 1 h (Wipf P, et al., Mitochondrial targeting of selective electron scavengers: synthesis and biological analysis of hemigramicidin-TEMPO conjugates. J Am Chem. Soc. 127: 12460-12461, 2005).
Subcellular compartments were isolated by differential centrifugation. Cells were centrifuged at 1500 RPM for 10 min and the supernatant (media) was removed. The remaining whole cell pellet was washed with cold PBS, resuspended in 0.3 mL of hypotonic buffer solution, and incubated on ice for 45 min. Cells were then lysed by three rapid freeze-thaw cycles in liquid nitrogen for 30 sec and water at 25° C. for 3 min. Lysed cells were centrifuged at 3000×g for 5 min to isolate nucleus and cellular debris. Supernatant was centrifuged at 12000×g for 45 min to isolate mitochondria from cytoplasm (Wipf P, et al., Mitochondrial targeting of selective electron scavengers: synthesis and biological analysis of hemigramicidin-TEMPO conjugates. J Am Chem. Soc. 127: 12460-12461, 2005).
Each cellular fraction (media, whole cell pellet, nucleus/cellular debris, mitochondria, and cytoplasm) was mixed with DMSO (1:1 vol/vol) and 2 mM of potassium ferricyanide (K3Fe(CN)6) to convert […] to EPR-detectable radical forms (Behringer W, et al., Antioxidant Tempol enhances hypothermic cerebral preservation during prolonged cardiac arrest in dogs. J Cereb Blood Flow Metab. 22: 105-117, 2002). 70 μL of the homogenate was loaded into Teflon tubing (0.8 mm internal diameter) (Alpha Wire Corp., Elizabeth, N.J.) which was folded in half and placed into an open ESR quartz tube (inner diameter of 3.0 mm). EPR measurements were made in triplicate using a JEOL-RE1X EPR spectrometer (Jeol, Tokyo, Japan) under the following conditions: 334.7 mT center field, 5 mT sweep width, 0.079 mT field modulation, 20 mW microwave power, 0.1 sec time constant, and 2 min scan time at 22.5° C. Utilizing signal magnitude and isolated volumes, amount and concentration of JP4-039 or TEMPO were calculated for each sample.

[3] = 0 hours, 10 μM post-irradiation

## CC1(C)CCCC(C)(C)N1[O] [TEMPO, 2,2,6,6-tetramethylpiperidine-N-oxyl, reference compound]
32D cl 3 cells [1]; [3]
  D0: 1.04 ± 0.07
  Ñ: 8.23±4.35
32D cl 3 cells [1]; 48 or 72 h after irradiation
  radiation mitigation: no statistically significant radiation mitigation
32D cl 3 cells [1]; 24 hours (Flask), 10 μM
  D0: 1.26 ± 0.11
  Ñ: 8.86 ± 6.69
32D cl 3 cells [1]; 24 hours (Pellet), 10 μM
  D0: 1.13 ± 0.19
  Ñ: 7.59±1.71
Ercc1−/Δ mice
  body weight: cause weight loss
32D cl 3 cells [2]
  nitroxide signal in whole cell pellet and subcellular fractions: below the detectable threshold
